Measured values: patent publication US11278503B2, “Pharmaceutical compositions comprising semifluorinated alkanes for the treatment of contact lense-related conditions” (NOVALIQ GMBH, priority 2017, dated 2022)

Assay: Physical properties of the semifluorinated alkanes stated in the description
Format: physicochemical
Conditions: for refractive index: at 20° C.; for density: at 25° C.

Structure (SMILES) | chemical and physiological inertness (in words) | solubility in water (in words) | refractive index | density [g/mL]
CCCCCC(F)(F)C(F)(F)C(F)(F)C(F)(F)F [F4H5, 1-perfluorobutyl-pentane] | chemically and physiologically inert | water-insoluble | 1.3204 | 1.284
CCCCCCCCC(F)(F)C(F)(F)C(F)(F)C(F)(F)C(F)(F)C(F)(F)F [F6H8, 1-perfluorohexyl-octane] | chemically and physiologically inert | water-insoluble | 1.3432 | 1.35
